As a reminder, the IC50 is the point on the concentration scale where inhibition reaches its midpoint. Low readings indicate inhibition by little substance, high ones a need for much substance.

SMILES strings stand for the structures.

For test [1], the species on record is Homo sapiens. Kind of test: Compound was evaluated for the inhibition of U-46,619 induced aggregation of human platelet rich plasma. Format: functional.
Test [2] addresses T1, Thromboxane A2 receptor (Homo sapiens, UniProt P21731).
T1 sequence (P21731 whole entry): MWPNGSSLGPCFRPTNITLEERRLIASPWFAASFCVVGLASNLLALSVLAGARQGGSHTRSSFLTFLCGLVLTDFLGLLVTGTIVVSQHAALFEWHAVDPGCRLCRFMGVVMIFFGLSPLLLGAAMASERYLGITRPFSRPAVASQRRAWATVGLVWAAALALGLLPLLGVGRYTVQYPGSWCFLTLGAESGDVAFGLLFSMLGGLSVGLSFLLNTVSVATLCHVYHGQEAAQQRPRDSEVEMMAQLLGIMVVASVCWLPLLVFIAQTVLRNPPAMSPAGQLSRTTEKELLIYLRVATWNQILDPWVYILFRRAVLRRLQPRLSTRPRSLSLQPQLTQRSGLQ
Description: Compound was evaluated for the competitive binding of [3H]U-46619 to washed human platelets at the Thromboxane A2 receptor.

Consider `CCCCCCNC[C@H]1C2CC(CO2)[C@@H]1C/C=C\CCCC(=O)O` (stereo partly drawn), for which the IC50 in test [1] came out at 22 µM; in test [2], 25 µM.

Regarding `O=C(O)CCC/C=C\C[C@H]1C2COC(C2)[C@@H]1CNNC(=O)Nc1ccccc1` (stereo partly drawn), in test [1], the IC50 stood at 7 µM.

Source of the values: ChEMBL document CHEMBL1126192, “PgH2 analogs as potential antiplatelet derivatives” (J Med Chem, 1992).
